# Results as given in ChEMBL document CHEMBL5465560, “Selectivity Literature for EUbOPEN Chemogenomic Library” (2024).
# How the values were obtained:
# [1] = molecular target: Dual specificity tyrosine-phosphorylation-regulated kinase 1A (Homo sapiens, UniProt Q13627); assay: Selectivity interaction (KinomeScan (DiscoverX)) EUB0000229b DYRK1A; settings: at 10 µM
# [2] = molecular target: Serine/threonine-protein kinase MRCK gamma (Homo sapiens) (UniProt Q6DT37); assay: Selectivity interaction (KinomeScan (DiscoverX)) EUB0000092b CDC42BPG; settings: at 10 µM
# Serine/threonine-protein kinase MRCK gamma (Homo sapiens), sequence (Q6DT37 whole entry): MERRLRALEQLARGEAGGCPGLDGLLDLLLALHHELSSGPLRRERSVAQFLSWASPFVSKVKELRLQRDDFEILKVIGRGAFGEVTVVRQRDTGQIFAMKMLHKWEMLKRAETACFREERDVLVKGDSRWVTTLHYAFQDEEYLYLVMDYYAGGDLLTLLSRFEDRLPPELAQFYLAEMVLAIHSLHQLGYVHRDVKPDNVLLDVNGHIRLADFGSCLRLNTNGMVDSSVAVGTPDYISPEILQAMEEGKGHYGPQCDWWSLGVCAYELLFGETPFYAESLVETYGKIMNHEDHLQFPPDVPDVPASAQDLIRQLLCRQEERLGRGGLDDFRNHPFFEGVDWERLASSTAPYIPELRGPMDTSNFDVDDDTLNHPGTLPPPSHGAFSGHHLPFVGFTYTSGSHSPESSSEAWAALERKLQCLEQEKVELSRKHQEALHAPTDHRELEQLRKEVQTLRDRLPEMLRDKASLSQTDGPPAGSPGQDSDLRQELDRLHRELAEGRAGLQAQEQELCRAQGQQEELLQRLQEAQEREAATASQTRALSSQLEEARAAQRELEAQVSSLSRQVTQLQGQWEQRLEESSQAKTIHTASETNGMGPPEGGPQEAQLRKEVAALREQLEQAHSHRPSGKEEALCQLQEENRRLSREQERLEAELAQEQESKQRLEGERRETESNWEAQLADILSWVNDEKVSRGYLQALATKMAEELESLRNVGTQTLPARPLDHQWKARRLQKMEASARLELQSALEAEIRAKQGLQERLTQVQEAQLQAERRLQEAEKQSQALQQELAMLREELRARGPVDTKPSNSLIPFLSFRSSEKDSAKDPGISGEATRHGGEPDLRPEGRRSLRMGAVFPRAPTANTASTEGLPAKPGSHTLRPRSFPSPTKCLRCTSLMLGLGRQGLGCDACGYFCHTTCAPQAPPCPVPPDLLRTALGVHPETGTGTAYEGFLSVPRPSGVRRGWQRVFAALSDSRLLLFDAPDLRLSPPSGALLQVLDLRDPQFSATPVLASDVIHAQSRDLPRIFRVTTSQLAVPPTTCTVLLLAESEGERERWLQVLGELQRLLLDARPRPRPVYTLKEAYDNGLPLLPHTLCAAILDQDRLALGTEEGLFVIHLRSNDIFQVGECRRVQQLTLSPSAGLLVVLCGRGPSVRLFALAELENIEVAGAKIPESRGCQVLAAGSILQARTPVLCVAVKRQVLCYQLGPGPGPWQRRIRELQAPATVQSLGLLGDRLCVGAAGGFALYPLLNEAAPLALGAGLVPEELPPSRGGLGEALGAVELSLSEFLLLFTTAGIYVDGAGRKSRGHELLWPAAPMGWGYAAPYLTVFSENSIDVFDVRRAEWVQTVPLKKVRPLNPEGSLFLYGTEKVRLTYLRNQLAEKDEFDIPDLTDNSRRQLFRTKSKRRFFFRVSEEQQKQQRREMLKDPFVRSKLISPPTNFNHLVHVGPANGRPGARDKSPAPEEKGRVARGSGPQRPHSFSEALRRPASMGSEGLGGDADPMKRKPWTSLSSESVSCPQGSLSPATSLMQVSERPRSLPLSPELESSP
# [3] = molecular target: SRSF protein kinase 1 (Homo sapiens, UniProt Q96SB4); assay: Selectivity interaction (Kinase panel (DSF assay)) EUB0001559a SRPK1
# SRSF protein kinase 1, sequence (Q96SB4 whole entry): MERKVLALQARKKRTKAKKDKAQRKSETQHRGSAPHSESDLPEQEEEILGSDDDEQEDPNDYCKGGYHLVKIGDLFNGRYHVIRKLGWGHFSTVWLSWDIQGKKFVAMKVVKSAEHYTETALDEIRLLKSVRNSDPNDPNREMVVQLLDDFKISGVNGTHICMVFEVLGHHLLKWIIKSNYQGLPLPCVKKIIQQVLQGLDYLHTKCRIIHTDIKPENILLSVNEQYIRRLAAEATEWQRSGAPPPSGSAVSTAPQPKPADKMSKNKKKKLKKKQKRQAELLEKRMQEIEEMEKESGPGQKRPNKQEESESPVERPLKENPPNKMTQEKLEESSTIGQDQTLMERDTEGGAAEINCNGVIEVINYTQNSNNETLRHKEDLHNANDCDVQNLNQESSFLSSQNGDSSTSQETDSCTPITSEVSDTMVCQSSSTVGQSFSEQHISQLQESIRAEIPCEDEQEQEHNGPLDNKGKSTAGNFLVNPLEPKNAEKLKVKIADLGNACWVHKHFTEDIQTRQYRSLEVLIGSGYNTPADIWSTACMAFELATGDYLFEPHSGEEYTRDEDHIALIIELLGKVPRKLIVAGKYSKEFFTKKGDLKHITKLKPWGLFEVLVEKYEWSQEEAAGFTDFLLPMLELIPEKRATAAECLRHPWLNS
# [4] = molecular target: T1, Myotonin-protein kinase (Homo sapiens) (UniProt Q09013); assay: Selectivity interaction (Kinase panel (Invitrogen)) EUB0000639a DMPK; settings: at 200 nM
# T1 sequence (whole entry): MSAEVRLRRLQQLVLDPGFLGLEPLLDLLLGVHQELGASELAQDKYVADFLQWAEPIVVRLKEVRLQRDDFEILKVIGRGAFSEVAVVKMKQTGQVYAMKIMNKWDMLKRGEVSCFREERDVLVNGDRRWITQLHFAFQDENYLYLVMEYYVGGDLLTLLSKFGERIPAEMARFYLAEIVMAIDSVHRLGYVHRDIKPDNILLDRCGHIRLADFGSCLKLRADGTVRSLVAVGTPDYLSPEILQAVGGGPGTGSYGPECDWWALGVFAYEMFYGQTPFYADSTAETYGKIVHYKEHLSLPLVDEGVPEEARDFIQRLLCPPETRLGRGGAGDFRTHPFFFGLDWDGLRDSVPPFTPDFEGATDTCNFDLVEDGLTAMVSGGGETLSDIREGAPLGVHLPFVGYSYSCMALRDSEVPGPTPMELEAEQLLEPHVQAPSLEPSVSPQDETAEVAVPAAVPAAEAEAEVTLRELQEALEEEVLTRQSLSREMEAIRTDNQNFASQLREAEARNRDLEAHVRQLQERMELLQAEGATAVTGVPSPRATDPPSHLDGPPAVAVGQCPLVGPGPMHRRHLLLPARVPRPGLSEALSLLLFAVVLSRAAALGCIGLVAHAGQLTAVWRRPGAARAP
# [5] = molecular target: Serine/threonine-protein kinase Nek7 (Homo sapiens) (UniProt Q8TDX7); assay: Selectivity interaction (ActivX KiNativ screen (kinase selectivity in THP-1 cell lysates)) EUB0000639a NEK7; assay type: subcellular; settings: lysate, at 0.2 µM
# Serine/threonine-protein kinase Nek7 (Homo sapiens), sequence (Q8TDX7 whole entry, looked up): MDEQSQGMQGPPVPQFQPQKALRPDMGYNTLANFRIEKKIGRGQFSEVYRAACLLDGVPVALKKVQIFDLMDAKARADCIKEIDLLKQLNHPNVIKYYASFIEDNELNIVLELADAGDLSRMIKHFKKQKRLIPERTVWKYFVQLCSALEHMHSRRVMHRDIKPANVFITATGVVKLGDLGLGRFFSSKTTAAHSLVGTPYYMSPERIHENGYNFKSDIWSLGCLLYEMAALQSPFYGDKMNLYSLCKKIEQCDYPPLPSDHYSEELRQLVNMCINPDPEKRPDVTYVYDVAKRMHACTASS
# [6] = system: Epidermal growth factor receptor (Homo sapiens), P00533 [UNDEFINED MUTATION]; assay: Selectivity interaction (KinomeScan (DiscoverX)) EUB0000607a EGFR; settings: at 10 µM
# Epidermal growth factor receptor (Homo sapiens), P00533 [UNDEFINED MUTATION], sequence (P00533 whole entry, looked up, change not shown): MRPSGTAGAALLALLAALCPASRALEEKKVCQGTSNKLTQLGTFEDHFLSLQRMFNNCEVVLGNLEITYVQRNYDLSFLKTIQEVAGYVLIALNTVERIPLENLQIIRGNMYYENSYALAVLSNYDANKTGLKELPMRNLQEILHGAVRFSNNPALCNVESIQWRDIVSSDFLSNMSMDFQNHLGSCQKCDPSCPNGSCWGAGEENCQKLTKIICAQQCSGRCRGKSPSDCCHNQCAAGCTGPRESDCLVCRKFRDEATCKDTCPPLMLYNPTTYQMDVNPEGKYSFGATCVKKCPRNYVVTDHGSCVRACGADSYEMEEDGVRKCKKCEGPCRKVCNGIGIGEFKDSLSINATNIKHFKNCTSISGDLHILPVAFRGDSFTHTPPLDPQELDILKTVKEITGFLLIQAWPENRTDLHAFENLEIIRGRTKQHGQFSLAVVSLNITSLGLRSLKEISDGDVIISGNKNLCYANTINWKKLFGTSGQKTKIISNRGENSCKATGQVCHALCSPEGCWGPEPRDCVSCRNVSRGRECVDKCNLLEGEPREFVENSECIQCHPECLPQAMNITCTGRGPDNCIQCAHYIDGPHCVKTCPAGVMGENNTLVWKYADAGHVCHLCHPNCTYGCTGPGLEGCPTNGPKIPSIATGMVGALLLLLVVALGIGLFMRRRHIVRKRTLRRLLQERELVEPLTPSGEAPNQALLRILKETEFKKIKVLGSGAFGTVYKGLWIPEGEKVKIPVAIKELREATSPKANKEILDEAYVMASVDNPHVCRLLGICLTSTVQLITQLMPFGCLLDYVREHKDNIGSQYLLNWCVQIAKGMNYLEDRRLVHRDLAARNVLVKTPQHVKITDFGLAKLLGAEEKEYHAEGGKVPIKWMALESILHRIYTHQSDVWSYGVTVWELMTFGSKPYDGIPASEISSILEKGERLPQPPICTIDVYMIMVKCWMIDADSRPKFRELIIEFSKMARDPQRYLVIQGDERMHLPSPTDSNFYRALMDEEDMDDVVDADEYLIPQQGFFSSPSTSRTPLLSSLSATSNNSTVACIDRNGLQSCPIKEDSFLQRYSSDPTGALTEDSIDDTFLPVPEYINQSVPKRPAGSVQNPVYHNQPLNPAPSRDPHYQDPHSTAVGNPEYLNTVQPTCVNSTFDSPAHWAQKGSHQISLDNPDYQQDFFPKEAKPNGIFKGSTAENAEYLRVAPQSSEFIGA
# [7] = molecular target: Cyclin-dependent kinase 2 (Homo sapiens, UniProt P24941); assay: Selectivity interaction (KinomeScan (DiscoverX)) EUB0001049a CDK2; settings: at 1 µM
# [8] = molecular target: T2, Serine/threonine-protein kinase STK11 (Homo sapiens) (UniProt Q15831); assay: Selectivity interaction (KinomeScan (DiscoverX)) EUB0000695a STK11; settings: at 100 nM
# T2 sequence (whole entry): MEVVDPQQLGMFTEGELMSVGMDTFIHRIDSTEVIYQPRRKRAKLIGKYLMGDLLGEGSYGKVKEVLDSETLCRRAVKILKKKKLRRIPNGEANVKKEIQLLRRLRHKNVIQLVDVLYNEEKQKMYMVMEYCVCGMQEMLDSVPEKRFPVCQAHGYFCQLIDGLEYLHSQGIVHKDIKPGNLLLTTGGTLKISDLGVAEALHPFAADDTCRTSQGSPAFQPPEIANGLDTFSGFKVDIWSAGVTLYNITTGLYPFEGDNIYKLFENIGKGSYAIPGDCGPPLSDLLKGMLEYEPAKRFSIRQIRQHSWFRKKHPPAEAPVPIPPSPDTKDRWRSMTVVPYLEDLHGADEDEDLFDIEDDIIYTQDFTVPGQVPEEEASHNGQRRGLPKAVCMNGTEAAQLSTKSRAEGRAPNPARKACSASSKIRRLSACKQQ
# [9] = molecular target: STE20-like serine/threonine-protein kinase (Homo sapiens, UniProt Q9H2G2); assay: Selectivity interaction (KinomeScan (DiscoverX)) EUB0000045b SLK
# STE20-like serine/threonine-protein kinase, sequence (Q9H2G2 whole entry, looked up): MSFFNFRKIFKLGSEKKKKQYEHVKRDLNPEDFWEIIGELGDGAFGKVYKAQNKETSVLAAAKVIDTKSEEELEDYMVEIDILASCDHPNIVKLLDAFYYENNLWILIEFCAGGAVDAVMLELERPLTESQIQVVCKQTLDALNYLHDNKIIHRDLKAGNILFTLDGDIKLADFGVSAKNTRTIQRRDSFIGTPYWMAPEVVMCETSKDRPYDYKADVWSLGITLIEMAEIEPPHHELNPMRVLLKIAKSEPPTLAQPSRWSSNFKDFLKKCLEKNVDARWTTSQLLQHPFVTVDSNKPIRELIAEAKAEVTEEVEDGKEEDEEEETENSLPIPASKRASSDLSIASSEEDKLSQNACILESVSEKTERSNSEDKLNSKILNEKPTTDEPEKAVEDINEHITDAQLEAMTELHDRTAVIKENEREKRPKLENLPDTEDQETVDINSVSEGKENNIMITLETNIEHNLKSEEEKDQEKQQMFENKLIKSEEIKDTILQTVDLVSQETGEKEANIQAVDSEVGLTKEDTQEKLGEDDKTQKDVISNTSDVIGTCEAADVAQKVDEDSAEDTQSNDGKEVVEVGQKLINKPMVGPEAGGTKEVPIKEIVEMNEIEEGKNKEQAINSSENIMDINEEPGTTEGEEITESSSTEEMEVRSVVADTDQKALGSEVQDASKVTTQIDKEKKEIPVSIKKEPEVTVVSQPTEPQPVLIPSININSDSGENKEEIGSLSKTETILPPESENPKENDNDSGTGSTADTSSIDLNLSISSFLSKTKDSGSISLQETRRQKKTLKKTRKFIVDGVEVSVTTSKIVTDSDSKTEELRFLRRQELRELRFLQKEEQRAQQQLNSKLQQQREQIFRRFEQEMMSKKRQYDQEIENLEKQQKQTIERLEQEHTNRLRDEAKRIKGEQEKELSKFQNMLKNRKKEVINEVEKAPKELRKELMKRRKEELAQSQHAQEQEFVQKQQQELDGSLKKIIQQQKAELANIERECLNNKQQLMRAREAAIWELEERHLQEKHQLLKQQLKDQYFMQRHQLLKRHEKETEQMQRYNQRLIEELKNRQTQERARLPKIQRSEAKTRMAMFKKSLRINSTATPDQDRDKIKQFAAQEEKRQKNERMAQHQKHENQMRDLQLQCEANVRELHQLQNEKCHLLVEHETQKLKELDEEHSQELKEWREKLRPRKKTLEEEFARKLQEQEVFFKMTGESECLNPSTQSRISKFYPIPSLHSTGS
# [10] = molecular target: T3, Mitogen-activated protein kinase kinase kinase 6 (Homo sapiens) (UniProt O95382); assay: Selectivity interaction (Ambit KINOMEscan and KiNATiv profiling in Jurkat cells) EUB0000090b MAP3K6; assay type: cell-based; settings: at 1 µM
# T3 sequence (whole entry): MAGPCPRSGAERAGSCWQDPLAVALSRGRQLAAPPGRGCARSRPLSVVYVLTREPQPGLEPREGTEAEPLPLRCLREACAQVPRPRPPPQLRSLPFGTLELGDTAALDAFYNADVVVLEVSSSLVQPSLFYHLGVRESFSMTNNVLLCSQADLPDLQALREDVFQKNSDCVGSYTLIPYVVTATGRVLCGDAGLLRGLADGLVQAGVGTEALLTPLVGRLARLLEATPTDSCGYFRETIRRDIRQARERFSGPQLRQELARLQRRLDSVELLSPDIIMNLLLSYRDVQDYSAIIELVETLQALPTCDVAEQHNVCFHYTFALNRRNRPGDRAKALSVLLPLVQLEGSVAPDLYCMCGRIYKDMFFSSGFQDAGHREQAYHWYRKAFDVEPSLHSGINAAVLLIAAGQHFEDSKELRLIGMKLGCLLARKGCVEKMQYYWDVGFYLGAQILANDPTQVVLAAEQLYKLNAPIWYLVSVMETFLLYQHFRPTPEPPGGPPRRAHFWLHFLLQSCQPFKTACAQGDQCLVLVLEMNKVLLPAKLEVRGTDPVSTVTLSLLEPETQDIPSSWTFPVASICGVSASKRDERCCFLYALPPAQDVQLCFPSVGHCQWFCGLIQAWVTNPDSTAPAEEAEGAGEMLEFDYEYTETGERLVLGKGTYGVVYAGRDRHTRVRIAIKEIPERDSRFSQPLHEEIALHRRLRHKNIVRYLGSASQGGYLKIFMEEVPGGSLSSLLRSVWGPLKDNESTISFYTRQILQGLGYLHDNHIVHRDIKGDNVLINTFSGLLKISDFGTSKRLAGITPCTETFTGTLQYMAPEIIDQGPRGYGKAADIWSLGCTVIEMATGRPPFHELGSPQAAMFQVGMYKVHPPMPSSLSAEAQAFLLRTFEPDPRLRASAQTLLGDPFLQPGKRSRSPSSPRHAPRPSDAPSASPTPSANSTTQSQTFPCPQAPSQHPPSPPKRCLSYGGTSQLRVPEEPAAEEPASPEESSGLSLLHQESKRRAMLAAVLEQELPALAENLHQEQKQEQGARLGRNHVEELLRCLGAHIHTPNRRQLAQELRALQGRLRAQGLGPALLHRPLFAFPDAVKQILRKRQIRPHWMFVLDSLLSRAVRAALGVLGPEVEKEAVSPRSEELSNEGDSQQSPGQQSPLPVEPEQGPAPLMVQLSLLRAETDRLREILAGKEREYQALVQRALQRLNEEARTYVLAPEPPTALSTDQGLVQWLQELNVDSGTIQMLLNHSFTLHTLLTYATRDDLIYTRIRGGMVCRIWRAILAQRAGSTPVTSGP
compound,measurement,setting,value
COc1cc(N(C)c2ccnc3ccc(C(F)(F)F)cc23)cc(OC)c1OC,% binding,[1],65%
CCC(=O)N1CCN(c2ccc(-n3c(=O)ccc4cnc5ccc(-c6cnc7ccccc7c6)cc5c43)cc2C(F)(F)F)CC1,% of control,[2],1.6%
CN(C(=O)c1cnn2cccnc12)c1cc2c(cc1N1CCOCC1)C(=O)N(C[C@@H](F)C(C)(C)O)C2,dTM,[3],0.2 K
CC[C@@H]1[C@H](F)C(=O)N[C@@H]1COc1nccc2cc(C(N)=O)c(OC)cc12 [ZIMLOVISERTIB],% of inhibition,[4],-0.603%
same,% of inhibition,[5],-2.2%
CNC(=O)Nc1ccc(-c2nc(N3CC4CCC(C3)O4)c3cnn(C4CCC5(CC4)OCCO5)c3n2)cc1,% of control,[6],62%
COc1cc(Nc2nc(C)cc(-c3cnn4nc(OC)ccc34)n2)cc(C(F)(F)F)c1,% of control,[7],91%
Cc1cc(F)c(C(=O)Nc2cccc(-c3nncn3C(C)C)n2)cc1-n1cnc(C2CC2)c1,% of control,[8],80%
C=CC(=O)Nc1cc(-n2c(=O)ccc3cnc4ccc(-c5ccc(NS(C)(=O)=O)cc5)cc4c32)ccc1C,% of control,[9]; at 1 µM,59%
same,% of control,[9]; at 10 µM,100%
CN(C)C/C=C/C(=O)Nc1ccc(C(=O)N2CCCC(Nc3ncc(Cl)c(-c4c[nH]c5ccccc45)n3)C2)cc1 (stereo unspecified),% of control,[10],100%
